Here are results for 23 molecules from patent publication US10208046B2, “Nitrogen-containing heterocyclic compound” (Takeda Pharmaceutical Company Limited, priority 2014, dated 2019).

The target of the assay is T1, human M1 receptor (hCHRM1) (Homo sapiens, UniProt P11229).
T1 construct: expressed in transfected cells
T1 sequence (P11229 1-460): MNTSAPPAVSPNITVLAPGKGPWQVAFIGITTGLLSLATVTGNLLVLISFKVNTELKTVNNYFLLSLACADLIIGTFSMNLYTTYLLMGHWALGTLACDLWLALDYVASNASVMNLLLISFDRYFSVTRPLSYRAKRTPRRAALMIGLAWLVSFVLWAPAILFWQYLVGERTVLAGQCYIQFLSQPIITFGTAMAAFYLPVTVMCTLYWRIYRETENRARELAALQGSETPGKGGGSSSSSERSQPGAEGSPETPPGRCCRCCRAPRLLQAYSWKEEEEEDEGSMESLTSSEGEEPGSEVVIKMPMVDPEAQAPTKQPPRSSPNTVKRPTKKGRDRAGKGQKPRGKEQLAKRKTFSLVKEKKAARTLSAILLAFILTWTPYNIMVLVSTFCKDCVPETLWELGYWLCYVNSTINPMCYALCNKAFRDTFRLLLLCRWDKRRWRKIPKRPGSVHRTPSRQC
Put plainly: Measurement of M1 receptor positive allosteric modulator (M1PAM) activity, calcium fluorescence in CHO-K1 cells. In kind it is cell-based. The note with it: for activity (%) at 10 μM: 10 μM test compound with acetylcholine at EC20, 100% = acetylcholine 1 μM, 0% = DMSO; for EC50: inflection point in the concentration-dependent curve, acetylcholine at EC20 (final 0.6-0.8 nM), CHO-K1 cells expressing human M1, Fluo-4, FLIPRtetra, read-out: IP value. The procedure:
Measurement of M1 Receptor Positive Allosteric Modulator (M1PAM) Activity
The activity of a test compound in the presence of acetylcholine at EC20 concentration (final concentration 0.6-0.8 nM), which affords an action corresponding to about 20% of the maximum activity, was measured as PAM activity. The method is as follows. CHO-K1 cells stably expressing a human M1 receptor (hCHRM1) were plated on a 384-well black clear bottom plate (BD Falcon) at 5,000 cells/well, and cultured in an incubator at 37° C., 5% CO2 for 1 day. The medium in the cell plate was removed, and assay buffer A containing calcium indicator (Recording medium (DOJINDO LABORATORIES), 0.1% BSA (Wako Pure Chemical Industries, Ltd.), 2.5 μg/mL Fluo-4 AM (DOJINDO LABORATORIES), 0.08% Pluronic F127 (DOJINDO LABORATORIES), 1.25 mM probenecid (DOJINDO LABORATORIES)) was added at 30 μL/well. The cells were left standing in the incubator at 37° C., 5% CO2 for 30 min, and further left standing at room temperature for 30 min. A test compound prepared by diluting with assay buffer B (HBSS (Invitrogen), 20 mM HEPES (Invitrogen), 0.1% BSA) containing 2.4-3.2 nM acetylcholine was added at 10 μL/well, and the fluorescence was measured by FLIPRtetra (Molecular Devices) for 1 min every 1 second. With the definition that the amount of change in the fluorescence on addition of acetylcholine (final concentration 1 μM) is 100% and that on addition of DMSO instead of a test compound is 0%, the activity (%) of the test compound was calculated, and the inflection point in the concentration-dependent curve of the test compound was calculated as IP values.

Structures are written as SMILES.

Consider `Cc1nn(C)cc1-c1ccc(CN2Cc3ncnc(OCC(F)(F)F)c3C2=O)c(F)c1` [Example 36, 6-(4-(1,3-dimethyl-1H-pyrazol-4-yl)-2-fluorobenzyl)-4-(2,2,2-trifluoroethoxy)-6,7-dihydro-5H-pyrrolo[3,4-d]pyrimidin-5-one], for which the “activity (%) at 10 μM” value is reported as 99% and the EC50 is 22 nM.

Take `CCn1cc(-c2ccc(CN3Cc4ncnc(OCC(F)(F)F)c4C3=O)cc2)cn1` [Example 37, 6-(4-(1-ethyl-1H-pyrazol-4-yl)benzyl)-4-(2,2,2-trifluoroethoxy)-6,7-dihydro-5H-pyrrolo[3,4-d]pyrimidin-5-one]: the “activity (%) at 10 μM” value came out at 98% and the EC50 worked out at 46 nM.

For `Cc1nn(C)cc1-c1ccc(CN2Cc3ncnc(OCC(F)(F)F)c3C2=O)cc1` [Example 39, 6-(4-(1,3-dimethyl-1H-pyrazol-4-yl)benzyl)-4-(2,2,2-trifluoroethoxy)-6,7-dihydro-5H-pyrrolo[3,4-d]pyrimidin-5-one], the “activity (%) at 10 μM” value is given as 93% and the EC50 was 40 nM.

With `Cc1nn(C)cc1-c1ccc(CN2Cc3ncnc(OCC(F)F)c3C2=O)c(F)c1` [Example 40, 4-(2,2-difluoroethoxy)-6-(4-(1,3-dimethyl-1H-pyrazol-4-yl)-2-fluorobenzyl)-6,7-dihydro-5H-pyrrolo[3,4-d]pyrimidin-5-one], the “activity (%) at 10 μM” value is given as 96% and the EC50 is 9 nM.

As to `Cc1nn(C)cc1-c1ccc(CN2Cc3ncnc(OCC(F)F)c3C2=O)cc1` [Example 42, 4-(2,2-difluoroethoxy)-6-(4-(1,3-dimethyl-1H-pyrazol-4-yl)benzyl)-6,7-dihydro-5H-pyrrolo[3,4-d]pyrimidin-5-one], the “activity (%) at 10 μM” value was determined as 106% and the EC50 came to 23 nM.

With `CCn1cc(-c2ccc(CN3Cc4ncnc(OCC(C)(C)F)c4C3=O)c(F)c2)cn1` [Example 44, 6-(4-(1-ethyl-1H-pyrazol-4-yl)-2-fluorobenzyl)-4-(2-fluoro-2-methylpropoxy)-6,7-dihydro-5H-pyrrolo[3,4-d]pyrimidin-5-one], the “activity (%) at 10 μM” value is recorded as 86% and the EC50 is 6.7 nM.

Consider `CCn1cc(-c2ccc(CN3Cc4ncnc(OCC(C)(C)F)c4C3=O)cc2)cn1` [Example 45, 6-(4-(1-ethyl-1H-pyrazol-4-yl)benzyl)-4-(2-fluoro-2-methylpropoxy)-6,7-dihydro-5H-pyrrolo[3,4-d]pyrimidin-5-one], for which the “activity (%) at 10 μM” value was 87% and the EC50 stood at 10 nM.

Regarding `Cc1nn(C)cc1-c1ccc(CN2Cc3ncnc(OCC(C)(C)F)c3C2=O)c(F)c1` [Example 46, 6-(4-(1,3-dimethyl-1H-pyrazol-4-yl)-2-fluorobenzyl)-4-(2-fluoro-2-methylpropoxy)-6,7-dihydro-5H-pyrrolo[3,4-d]pyrimidin-5-one], the “activity (%) at 10 μM” value is recorded as 90% and the EC50 is 5.2 nM.

Regarding `O=C1c2c(ccnc2OCC(F)F)CN1Cc1ccc(-c2cnn(CC(F)F)c2)cc1F` [Example 56, 4-(2,2-difluoroethoxy)-2-(4-(1-(2,2-difluoroethyl)-1H-pyrazol-4-yl)-2-fluorobenzyl)-1,2-dihydro-3H-pyrrolo[3,4-c]pyridin-3-one], the “activity (%) at 10 μM” value worked out at 102% and the EC50 was found to be 21 nM.

On to `O=C1c2c(ccnc2OCC(F)F)CN1Cc1ccc(-c2cnn(CC(F)(F)F)c2)cc1F` [Example 57], for which the “activity (%) at 10 μM” value turned out to be 101% and the EC50 was determined as 18 nM.

`CCn1cc(-c2ccc(CN3Cc4ccnc(OCC(F)F)c4C3=O)c(F)c2)cn1` [Example 58, 4-(2,2-difluoroethoxy)-2-(4-(1-ethyl-1H-pyrazol-4-yl)-2-fluorobenzyl)-1,2-dihydro-3H-pyrrolo[3,4-c]pyridin-3-one]: the “activity (%) at 10 μM” value was found to be 104% and the EC50 was 35 nM.

Consider `CCC(F)(F)COc1nccc2c1C(=O)N(Cc1ccc(-c3cnn(CC(F)F)c3)cc1F)C2` [Example 59, 4-(2,2-difluorobutoxy)-2-(4-(1-(2,2-difluoroethyl)-1H-pyrazol-4-yl)-2-fluorobenzyl)-1,2-dihydro-3H-pyrrolo[3,4-c]pyridin-3-one], for which the “activity (%) at 10 μM” value came out at 107% and the EC50 worked out at 17 nM.

Consider `CCn1cc(-c2ccc(CN3Cc4ccnc(OCC(F)(F)CC)c4C3=O)c(F)c2)cn1` [Example 60, 4-(2,2-difluorobutoxy)-2-(4-(1-ethyl-1H-pyrazol-4-yl)-2-fluorobenzyl)-1,2-dihydro-3H-pyrrolo[3,4-c]pyridin-3-one], for which the “activity (%) at 10 μM” value amounted to 94% and the EC50 stood at 7.4 nM.

As to `O=C1c2c(ccnc2OCC(F)F)CN1Cc1ccc(-c2cnn(CC(F)F)c2)cc1` [Example 61, 4-(2,2-difluoroethoxy)-2-(4-(1-(2,2-difluoroethyl)-1H-pyrazol-4-yl)benzyl)-1,2-dihydro-3H-pyrrolo[3,4-c]pyridin-3-one], the “activity (%) at 10 μM” value is on record as 91% and the EC50 came to 51 nM.

Consider `CCC(F)(F)COc1nccc2c1C(=O)N(Cc1ccc(-c3cnn(CC(F)(F)F)c3)cc1F)C2` [Example 62, 4-(2,2-difluorobutoxy)-2-(2-fluoro-4-(1-(2,2,2-trifluoroethyl)-1H-pyrazol-4-yl)benzyl)-1,2-dihydro-3H-pyrrolo[3,4-c]pyridin-3-one], for which the “activity (%) at 10 μM” value was 91% and the EC50 was determined as 40 nM.

With `CCC(F)(F)COc1nccc2c1C(=O)N(Cc1ccc(-c3cnn(C(F)F)c3)cc1)C2` [Example 63, 4-(2,2-difluorobutoxy)-2-(4-(1-(difluoromethyl)-1H-pyrazol-4-yl)benzyl)-1,2-dihydro-3H-pyrrolo[3,4-c]pyridin-3-one], the “activity (%) at 10 μM” value came to 91% and the EC50 was found to be 96 nM.

Turning to `O=C1c2c(ccnc2OCC(F)F)CN1Cc1ccc(-c2cnn(CC(F)(F)F)c2)cc1` [Example 65, 4-(2,2-difluoroethoxy)-2-(4-(1-(2,2,2-trifluoroethyl)-1H-pyrazol-4-yl)benzyl)-1,2-dihydro-3H-pyrrolo[3,4-c]pyridin-3-one], the “activity (%) at 10 μM” value worked out at 106% and the EC50 turned out to be 91 nM.

Turning to `CCn1cc(-c2ccc(CN3Cc4ccnc(OCC(F)F)c4C3=O)cc2)cn1` [Example 66, 4-(2,2-difluoroethoxy)-2-(4-(1-ethyl-1H-pyrazol-4-yl)benzyl)-1,2-dihydro-3H-pyrrolo[3,4-c]pyridin-3-one], the “activity (%) at 10 μM” value was 105% and the EC50 was 66 nM.

Turning to `CCn1cc(-c2ccc(CN3Cc4ncnc(OCC(F)(F)CC)c4C3=O)cc2)cn1` [Example 68, 4-(2,2-difluorobutoxy)-6-(4-(1-ethyl-1H-pyrazol-4-yl)benzyl)-6,7-dihydro-5H-pyrrolo[3,4-d]pyrimidin-5-one], the “activity (%) at 10 μM” value came to 97% and the EC50 stood at 7.1 nM.

As for `CCC(F)(F)COc1ncnc2c1C(=O)N(Cc1ccc(-c3cnn(CC(F)(F)F)c3)cc1)C2` [Example 69, 4-(2,2-difluorobutoxy)-(4-(1-(2,2,2-trifluoroethyl)-1H-pyrazol-4-yl)benzyl)-6,7-dihydro-5H-pyrrolo[3,4-d]pyrimidin-5-one], the “activity (%) at 10 μM” value was 88% and the EC50 was 9.6 nM.

As for `CCC(F)(F)COc1nccc2c1C(=O)N(Cc1ccc(-c3cn[nH]c3)cc1)C2` [Example 72, 4-(2,2-difluorobutoxy)-2-(4-(1H-pyrazol-4-yl)benzyl)-1,2-dihydro-3H-pyrrolo[3,4-c]pyridin-3-one], the “activity (%) at 10 μM” value came to 90% and the EC50 was 59 nM.

Regarding `CCC(F)(F)COc1nccc2c1C(=O)N(Cc1ccc(-c3cnn(CC(F)(F)F)c3)cc1)C2` [Example 73, 4-(2,2-difluorobutoxy)-2-(4-(1-(2,2,2-trifluoroethyl)-1H-pyrazol-4-yl)benzyl)-1,2-dihydro-3H-pyrrolo[3,4-c]pyridin-3-one], the “activity (%) at 10 μM” value is on record as 94% and the EC50 worked out at 50 nM.

For the molecule `CCC(F)(F)COc1ncnc2c1C(=O)N(Cc1ccc(-c3cn(C)nc3C)cc1F)C2` [Example 74, 4-(2,2-difluorobutoxy)-6-(4-(1,3-dimethyl-1H-pyrazol-4-yl)-2-fluorobenzyl)-6,7-dihydro-5H-pyrrolo[3,4-d]pyrimidin-5-one], the “activity (%) at 10 μM” value was 101% and the EC50 amounted to 8.7 nM.
